One test deals with IP6K3 (Homo sapiens (Human), UniProt Q96PC2). Nature of the test: Enzyme-coupled assay of IP6K3 activity (Dipp1-coupled, malachite green Pi release). The format is biochemical. Conditions: enzyme-coupled assay.
Another test has as its target IP6K1 (Homo sapiens (Human), UniProt Q92551). Nature of the test: Enzyme-coupled assay of IP6K1 activity (Dipp1-coupled, malachite green Pi release). Type of test: biochemical. Conditions: enzyme-coupled assay. As for the experimental part:
(§1) […] The cells were disrupted using a constant cell disruption system (Constant Systems) under 20 kPsi.
(§2) Pi release was determined with a malachite green colorimetric assay.^45 Where indicated, TNP (Cayman Chemical) was added to the assays (FIG. 2A-E).

The target of a further test is IP6K2 (Homo sapiens (Human), UniProt Q9UHH9). Nature of the test: Enzyme-coupled assay of IP6K2 activity (Dipp1-coupled, malachite green Pi release). The format is biochemical. The following applies: enzyme-coupled assay. As for the experimental part: as §1, §2
In another test the target is IPMK (Homo sapiens (Human), UniProt Q8NFU5). Nature of the test: Enzyme-coupled assay, IPMK IC50. The format is biochemical. Conditions: enzyme-coupled assay.
Another test relates to diet-induced obese mice. Conditions: cited from earlier work.

Sequence of IP6K1 (Q92551 whole entry): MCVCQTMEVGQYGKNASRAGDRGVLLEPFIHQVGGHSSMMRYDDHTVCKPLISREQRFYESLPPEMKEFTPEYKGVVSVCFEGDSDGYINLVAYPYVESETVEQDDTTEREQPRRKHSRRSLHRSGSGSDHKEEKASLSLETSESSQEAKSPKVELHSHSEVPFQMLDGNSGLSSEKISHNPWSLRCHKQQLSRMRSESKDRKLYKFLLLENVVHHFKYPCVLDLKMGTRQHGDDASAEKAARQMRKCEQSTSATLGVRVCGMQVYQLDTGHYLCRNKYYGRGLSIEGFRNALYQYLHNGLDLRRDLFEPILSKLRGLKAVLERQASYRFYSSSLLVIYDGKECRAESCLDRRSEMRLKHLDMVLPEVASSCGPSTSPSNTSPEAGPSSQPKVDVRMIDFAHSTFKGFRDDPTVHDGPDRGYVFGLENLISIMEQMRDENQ
Sequence of IPMK (Q8NFU5 whole entry, species assumed): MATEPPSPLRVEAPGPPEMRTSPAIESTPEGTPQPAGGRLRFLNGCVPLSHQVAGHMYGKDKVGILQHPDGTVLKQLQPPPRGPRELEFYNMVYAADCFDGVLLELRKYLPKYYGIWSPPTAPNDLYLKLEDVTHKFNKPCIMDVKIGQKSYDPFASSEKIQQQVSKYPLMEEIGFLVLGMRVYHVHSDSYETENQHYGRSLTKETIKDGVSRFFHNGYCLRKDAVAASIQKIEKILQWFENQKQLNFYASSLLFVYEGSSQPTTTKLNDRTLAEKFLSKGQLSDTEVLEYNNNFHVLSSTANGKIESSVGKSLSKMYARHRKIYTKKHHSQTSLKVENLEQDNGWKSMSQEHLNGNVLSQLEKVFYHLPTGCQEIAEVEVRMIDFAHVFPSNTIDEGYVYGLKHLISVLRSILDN
Sequence of IP6K3 (Q96PC2 whole entry): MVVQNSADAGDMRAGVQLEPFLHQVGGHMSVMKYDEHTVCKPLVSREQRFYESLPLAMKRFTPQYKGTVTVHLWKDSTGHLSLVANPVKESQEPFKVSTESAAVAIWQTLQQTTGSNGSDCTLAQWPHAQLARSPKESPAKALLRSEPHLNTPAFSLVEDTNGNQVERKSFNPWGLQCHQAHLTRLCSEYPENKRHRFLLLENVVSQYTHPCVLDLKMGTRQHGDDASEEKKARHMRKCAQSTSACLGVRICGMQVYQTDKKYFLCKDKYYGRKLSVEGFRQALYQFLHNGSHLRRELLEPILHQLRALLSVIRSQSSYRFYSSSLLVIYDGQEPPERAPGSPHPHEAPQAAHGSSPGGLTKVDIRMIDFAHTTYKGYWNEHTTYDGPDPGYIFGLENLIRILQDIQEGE
Sequence of IP6K2 (Q9UHH9 whole entry): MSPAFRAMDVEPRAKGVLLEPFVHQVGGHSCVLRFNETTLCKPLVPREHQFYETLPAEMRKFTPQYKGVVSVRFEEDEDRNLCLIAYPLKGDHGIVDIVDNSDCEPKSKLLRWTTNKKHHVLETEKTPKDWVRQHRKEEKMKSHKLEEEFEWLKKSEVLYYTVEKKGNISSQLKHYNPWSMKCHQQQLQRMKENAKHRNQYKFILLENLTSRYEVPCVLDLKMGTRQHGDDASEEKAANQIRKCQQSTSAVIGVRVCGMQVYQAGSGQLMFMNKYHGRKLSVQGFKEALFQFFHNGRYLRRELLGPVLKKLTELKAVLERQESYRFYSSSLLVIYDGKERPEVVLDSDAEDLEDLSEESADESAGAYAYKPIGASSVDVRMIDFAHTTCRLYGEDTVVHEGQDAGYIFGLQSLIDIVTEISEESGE

For orientation: IC50 means the concentration that inhibits the measured activity by half. A lower IC50 goes with greater potency in that assay. For `O=C(O)c1ccc2noc(-c3ccc(NC(=O)c4ccc(Cl)cc4)cc3)c2c1` [Compound 45], the IC50 against IP6K3 (Table 2) lay within 1000 to 100000 nM; at IP6K1 (Table 2), 100 to 1000 nM; against IP6K2 (Table 2), 100 to 1000 nM; at IPMK (Table 2), 1000 to 100000 nM.

`c1ccc(-c2onc3ccc(-c4nnn[nH]4)cc23)cc1` [Compound 59]: the IC50 against IP6K3 (Table 4) lay in the range of 100 to 1000 nM; against IP6K1 (Table 4), 10 to 100 nM; against IP6K2 (Table 4), 10 to 100 nM; against IPMK (Table 4), 10 to 100 nM.

Regarding `c1ccc(-c2onc3ccc(-c4nc[nH]n4)cc23)cc1` [Compound 60], the IC50 at IP6K3 (Table 4) lay in the range of 1000 to 100000 nM; at IP6K1 (Table 4), 1000 to 100000 nM; at IP6K2 (Table 4), 100 to 1000 nM; against IPMK (Table 4), 10 to 100 nM.

On to `c1ccc(-c2onc3ccc(-n4cncn4)cc23)cc1` [Compound 61], for which the IC50 on IP6K3 (Table 4) is 1000 to 100000 nM; at IP6K1 (Table 4), 1000 to 100000 nM; at IP6K2 (Table 4) it was 1000 to 100000 nM; against IPMK (Table 4), 10 to 100 nM.

On to `Fc1ccc(-c2onc3ccc(-c4nnn[nH]4)cc23)cc1` [Compound 63], for which the IC50 against IP6K3 (Table 4) fell in the range of 100 to 1000 nM; on IP6K1 (Table 4), 10 to 100 nM; on IP6K2 (Table 4), 10 to 100 nM; against IPMK (Table 4), 10 to 100 nM.

Regarding `Cc1cc(C)cc(-c2onc3ccc(-c4nnn[nH]4)cc23)c1` [Compound 65], the IC50 against IP6K3 (Table 4) fell in the range of 100 to 1000 nM; on IP6K1 (Table 4), 10 to 100 nM; at IP6K2 (Table 4), 10 to 100 nM; against IPMK (Table 4) it was 10 to 100 nM.

Turning to `FC(F)(F)Oc1ccc(-c2onc3ccc(-c4nnn[nH]4)cc23)cc1` [Compound 66], the IC50 lay within 100 to 1000 nM against IP6K3 (Table 4), 10 to 100 nM against IP6K1 (Table 4), 10 to 100 nM against IP6K2 (Table 4) and 10 to 100 nM at IPMK (Table 4).

`Clc1ccc(-c2onc3ccc(-c4nnn[nH]4)cc23)cc1Cl` [Compound 67]: the IC50 against IP6K3 (Table 4) lay in the range of 100 to 1000 nM; against IP6K1 (Table 4) it was 10 to 100 nM; against IP6K2 (Table 4), 100 to 1000 nM; against IPMK (Table 4) it was 10 to 100 nM.

As to `c1cncc(-c2ccc(-c3onc4ccc(-c5nnn[nH]5)cc34)cc2)c1` [Compound 69], the IC50 is 100 to 1000 nM at IP6K3 (Table 4), 10 to 100 nM on IP6K1 (Table 4), 10 to 100 nM against IP6K2 (Table 4) and below 10 nM against IPMK (Table 4).

Consider `c1ccc(Oc2ccc(-c3onc4ccc(-c5nnn[nH]5)cc34)cc2)cc1` [Compound 70], for which the IC50 on IP6K3 (Table 4) is 100 to 1000 nM; on IP6K1 (Table 4), 1000 to 100000 nM; against IP6K2 (Table 4), 100 to 1000 nM; at IPMK (Table 4), below 10 nM.

Turning to `O=C(Nc1ccc(-c2onc3ccc(-c4nnn[nH]4)cc23)cc1)C1CC1` [Compound 71], the IC50 at IP6K3 (Table 4) is below 10 nM; against IP6K1 (Table 4) it was 10 to 100 nM; against IP6K2 (Table 4), 100 to 1000 nM; on IPMK (Table 4) it was below 10 nM.

Consider `O=C(Nc1ccc(-c2onc3ccc(-c4nnn[nH]4)cc23)cc1)C1CCCC1` [Compound 72], for which the IC50 was below 10 nM against IP6K3 (Table 4), 10 to 100 nM against IP6K1 (Table 4), 10 to 100 nM on IP6K2 (Table 4) and 10 to 100 nM against IPMK (Table 4).

On to `O=C(Nc1cccc(-c2onc3ccc(-c4nnn[nH]4)cc23)c1)C1CCCC1` [Compound 73], for which the 50% inhibitory concentration (IC50) was 10 to 100 nM against IP6K3 (Table 4), 10 to 100 nM on IP6K1 (Table 4), 10 to 100 nM against IP6K2 (Table 4) and below 10 nM on IPMK (Table 4).

With `O=C(Nc1cccc(-c2onc3ccc(-c4nnn[nH]4)cc23)c1)C1CC1` [Compound 74], the IC50 at IP6K3 (Table 4) was 10 to 100 nM; at IP6K1 (Table 4), 10 to 100 nM; against IP6K2 (Table 4), 10 to 100 nM; against IPMK (Table 4), below 10 nM.

Turning to `CC(C)C(=O)Nc1cccc(-c2onc3ccc(-c4nnn[nH]4)cc23)c1` [Compound 75], the IC50 against IP6K3 (Table 4) was 100 to 1000 nM; against IP6K1 (Table 4), 100 to 1000 nM; on IP6K2 (Table 4) it was 100 to 1000 nM; against IPMK (Table 4), below 10 nM.

Take `Clc1ccccc1-c1onc2ccc(-c3nnn[nH]3)cc12` [Compound 76]: the IC50 was 100 to 1000 nM on IP6K3 (Table 4), 10 to 100 nM against IP6K1 (Table 4), 10 to 100 nM against IP6K2 (Table 4) and below 10 nM at IPMK (Table 4).

For the compound `COc1ccccc1-c1onc2ccc(-c3nnn[nH]3)cc12` [Compound 77], the IC50 lay in the range of 100 to 1000 nM against IP6K3 (Table 4), 10 to 100 nM on IP6K1 (Table 4), 10 to 100 nM against IP6K2 (Table 4) and 10 to 100 nM against IPMK (Table 4).

With `CN(C)CCOc1cccc(-c2onc3ccc(-c4nnn[nH]4)cc23)c1` [Compound 78], the IC50 at IP6K3 (Table 4) is 100 to 1000 nM; at IP6K1 (Table 4), 100 to 1000 nM; against IP6K2 (Table 4), 100 to 1000 nM; on IPMK (Table 4), below 10 nM.

Regarding `CN(C)CCOc1ccc(-c2onc3ccc(-c4nnn[nH]4)cc23)cc1` [Compound 79], the IC50 on IP6K3 (Table 4) lay in the range of 100 to 1000 nM; against IP6K1 (Table 4), 100 to 1000 nM; on IP6K2 (Table 4) it was 100 to 1000 nM; against IPMK (Table 4), 1000 to 100000 nM.

Take `Clc1cnc(Oc2cccc(-c3onc4ccc(-c5nnn[nH]5)cc34)c2)c(Cl)c1` [Compound 80]: the IC50 against IP6K3 (Table 4), on IP6K1 (Table 4), on IP6K2 (Table 4) and on IPMK (Table 4) was 10 to 100 nM throughout.

Consider `c1cc(OCCN2CCOCC2)cc(-c2onc3ccc(-c4nnn[nH]4)cc23)c1` [Compound 83], for which the IC50 against IP6K3 (Table 4) was in the range of 100 to 1000 nM; against IP6K1 (Table 4), 10 to 100 nM; on IP6K2 (Table 4), 100 to 1000 nM; at IPMK (Table 4), 10 to 100 nM.

With `O=[N+]([O-])c1ccc(CNc2nc(NCc3cccc(C(F)(F)F)c3)nc3nc[nH]c23)cc1` [TNP, N2-(m-Trifluorobenzyl)-N6-(p-nitrobenzyl)purine], the “Effect of treatment on obesity, insulin resistance and fatty liver” value in the test on diet-induced obese mice is “ameliorates obesity, insulin resistance and fatty liver”.

These data come from US20250154115A1, “ARYLBENZOISOXAZOLE COMPOUNDS AS IP6K AND IPMK INHIBITORS AND METHODS OF USE THEREOF” (THE UNIVERSITY OF NORTH CAROLINA AT CHAPEL HILL, priority 2022, published 2025).
